The values that follow come from patent EP0643069B1, “2'-DEOXY-2'-FLUOROCOFORMYCIN AND STEREOISOMERS THEREOF” (priority 1991, dated 1993).

For data set [1], the system named is Providencia rettgeri GN466. As to the kind of experiment: Minimum growth-inhibitory concentration, standard serial dilution assay. In kind it is cell-based. The procedure:
(§1) That is, a test was conducted to measure the minimum growth-inhibitory concentrations (MIC, mcg/ml) of these compounds against some microorganisms using a standard serial dilution assay method.

In data set [2] the test system is Providencia sp. 2991. The description is as above. In kind it is cell-based. The procedure: as §1
Data set [3] concerns the target T1, adenosine deaminase (Bos taurus, UniProt P56658).
T1 construct: purchased Sigma Chemical Type VI
T1 sequence (P56658 1-363): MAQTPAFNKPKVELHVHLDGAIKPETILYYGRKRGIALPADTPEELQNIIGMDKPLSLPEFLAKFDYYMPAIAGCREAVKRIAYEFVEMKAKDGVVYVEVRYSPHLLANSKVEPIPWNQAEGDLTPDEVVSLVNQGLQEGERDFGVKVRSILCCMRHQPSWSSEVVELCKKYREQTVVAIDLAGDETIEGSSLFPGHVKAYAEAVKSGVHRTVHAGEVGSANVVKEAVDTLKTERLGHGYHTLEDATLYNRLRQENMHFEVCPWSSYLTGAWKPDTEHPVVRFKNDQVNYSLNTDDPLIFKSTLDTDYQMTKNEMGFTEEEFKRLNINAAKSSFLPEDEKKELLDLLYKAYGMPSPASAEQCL
Kind of data set: Enzyme-inhibitory activity against adenosine deaminase (optical density at 265 nm). In kind it is biochemical. The procedure: The test of evaluating the inhibitory activity of each of the compounds against adenosine deaminase was carried out as given below.
Optical density of the reaction mixture obtained was measured with time (measured at the wave length of 265 nm), and the IC50 value of the tested compound against adenosine deaminase was calculated on the basis of decreases in the measured values of the optical density.

The nature of data set [4]: Stability in aqueous hydrochloric acid solution (pH 2), followed by thin-layer silica gel chromatography. The class given is physicochemical. Conditions: water acidified with hydrochloric acid, pH 2, 25°C. As for the experimental part:
The test was carried out in accordance with the following method.
An aqueous solution (pH 2) of the test compound dissolved in water as acidified with hydrochloric acid was kept at 25°C, from which samples were taken out with time for analizing by thin-layer silica gel chromatography using acetonitrile-0.2 M aqueous ammonium chloride (3:1) as the development solvent. The spot of the test compound on the silica gel thin-layer was detected by using UV method, staining tests with conc. sulfuric acid and coloring tests with aqueous ammonium molybdate sulfuric acid solution, in combination, whereby the time (in hour) required for the test compound to disappear completely in the aqueous hydrochloric acid solution was determined. By way of comparison, coformycin and pentostatin were also tested by the same method.

The test system of data set [5] is Escherichia coli. Kind of data set: Antibacterial activity of formycin A against Escherichia coli on bouillon-agar medium, with and without test compound. Conditions: for growth of Escherichia coli where test compound had permeated medium containing formycin A: test compound 1 mcg/ml, formycin A 100 mcg/ml in bouillon-agar medium, about 37°C. In kind it is cell-based. As for the experimental part:
In this test, an aqueous solution of each of the compounds to be tested, i.e. FCF, e-FCF, Ara-FCF or Ara-e-FCF, at a concentration of 1 mcg/ml, was added in the form of several drops on the surface of a bouillon-agar medium containing formycin A at a concentration of 100 mcg/ml to form a circular film of the said aqueous solution thereon. Then, the medium was allowed to stand to make the test compound permeate into the bouillon-agar layer. Subsequently, a strain of Escherichia coli was inoculated on the overall surface of said medium and the inoculated medium was incubated at about 37°C.

Data set [6] relates to mice. As to the kind of experiment: Acute toxicity in mice, intraperitoneal administration. In kind it is in vivo. As to conditions: 100 mg/kg.
The test system of data set [7] is mice. Conditions: intravenous administration, cited from earlier work.
Setting [8] is: phosphate buffer 0.05 M, pH 7.4, 25°C, 5 minutes pre-incubation, substrate adenosine, read-out: Enzyme-inhibitory activity, IC50.

In brackets after ≈: the same amount, converted by molar mass. Read-outs that look alike come from different tables or passages of the source.

On to `NC1O[C@H](CO)[C@@H](O)[C@@H]1F` (stereo partly drawn) [2-deoxy-2-fluoro-α,β-D-arabinofuranosyl amine], for which the minimal inhibitory concentration (MIC) (commonly the lowest concentration that inhibits growth of the organism) in data set [1] was determined as 50 µg/mL (≈ 331 µM); in data set [2] it was 100 µg/mL (≈ 662 µM).
The matching figures for `NC1O[C@H](CO)[C@@H](O)[C@H]1F` (stereo partly drawn) [2-deoxy-2-fluoro-α,β-D-ribofuranosyl amine]: 50 µg/mL (≈ 331 µM) and 100 µg/mL (≈ 662 µM).
For `OC[C@H]1O[C@@H](n2cnc3c2N=CNC[C@H]3O)[C@@H](F)[C@@H]1O` [Ara-FCF, (8R)-3-(2-deoxy-2-fluoro-β-D-arabinofuranosyl)-3,6,7,8-tetrahydroimidazo [4,5-d][1,3]diazepin-8-ol], the IC50 (in general, the concentration needed to halve the response being measured) in data set [3] (setting [8]) amounted to 0.77 nM. In addition, the “Time (hours) required for complete disappearance of test compound in aqueous solution at pH 2 at 25°C” value (“Time (hours) required” for short) in data set [4] is reported as 15 hours. The “growth of Escherichia coli where test compound had permeated medium containing formycin A” value (“growth” for short) in data set [5] is listed as “the bacteria could not grow to form the circular inhibition zone”. Further, in data set [6], the “acute toxicity (death of mice)” value is listed as “no death of the mice”.
With `OC[C@H]1O[C@@H](n2cnc3c2N=CNC[C@@H]3O)[C@@H](F)[C@@H]1O` [Ara-e-FCF, (8S)-3-(2-deoxy-2-fluoro-β-D-arabinofuranosyl)-3,6,7,8-tetrahydroimidazo[4,5-d][1,3]diazepin-8-ol], in data set [3] (setting [8]), the IC50 amounted to 2200 nM. Moreover, the “growth” value in data set [5] was “the bacteria could not grow to form the circular inhibition zone”.
For the compound `OC[C@H]1O[C@@H](n2cnc3c2N=CNC[C@H]3O)[C@H](O)[C@@H]1O` [Coformycin, (8R)-3-(β-D-ribofuranosyl)-3,6,7,8-tetrahydroimidazo[4,5-d][1,3]diazepin-8-ol], in data set [3], the IC50 amounted to 1.7 nM. For the same compound, the “Time (hours) required” value in data set [4] is recorded as 10 hours. For the same compound, in data set [7] (12.5 mg/kg), the “acute toxicity (death of mice)” value is listed as “cause the death of mice”.
Regarding `OC[C@H]1O[C@@H](n2cnc3c2N=CNC[C@H]3O)[C@H](F)[C@@H]1O` [FCF, (8R)-3-(2-deoxy-2-fluoro-β-D-ribofuranosyl)-3,6,7,8-tetrahydroimidazo [4,5-d][1,3]diazepin-8-ol], the IC50 in data set [3] (setting [8]) worked out at 17 nM. Besides, the “Time (hours) required” value in data set [4] turned out to be 15 hours. Besides, the “growth” value in data set [5] is listed as “the bacteria could not grow to form the circular inhibition zone”.
Consider `OC[C@H]1O[C@@H](n2cnc3c2NC=NC[C@H]3O)C[C@@H]1O` [Pentostatin, 2'-deoxycoformycin, reference compound], for which, in data set [4], the “Time (hours) required” value came to 1 hours. The “acute toxicity (body weight of tested mice)” value in data set [7] (25 mg/kg) is given as “cause the decrease in the body weight of tested mice”.
On to `OC[C@H]1O[C@@H](n2cnc3c2N=CNC[C@@H]3O)[C@H](F)[C@@H]1O` [e-FCF, (8S)-3-(2-deoxy-2-fluoro-β-D-ribofuranosyl)-3,6,7,8-tetrahydroimidazo [4,5-d][1,3]diazepin-8-ol], for which the IC50 in data set [3] (setting [8]) came out at 100 nM. Also, the “growth” value in data set [5] is on record as “the bacteria could not grow to form the circular inhibition zone”.
Regarding `Nc1ncnc2c([C@@H]3O[C@H](CO)[C@@H](O)[C@H]3O)n[nH]c12` [formycin A], the “antibacterial activity against Escherichia coli” value in data set [5] (formycin A alone at 100 mcg/ml) is recorded as “no antibacterial activity”.
